Molecules are shown by their SMILES. pKi: −log10 of the molar value.

One data set concerns the target T1, rat mGlu2 receptor (Rattus norvegicus, UniProt P31421).
T1 construct: expressed in transfected cells; host or cells: CHO cells, stably transfected with pcD1mGR2 (G-418 selection); membranes used
Kind of data set: [3H]-LY354740 binding on mGlu2 transfected CHO cell membranes. As to conditions: displacement of 10 nM [3H]-LY354740, CHO cell membranes, room temperature, 1 hour. An excerpt:
[^3H]-LY354740 Binding on mGlu2 Transfected CHO Cell Membranes. Transfection and Cell Culture
cDNA encoding the rat mGlu2 receptor protein in pBluescript II was subcloned into the eukaryotic expression vector pcDNA I-amp from Invitrogen Ltd (Paisley, UK). This vector construct (pcD1mGR2) was co-transfected with a psvNeo plasmid encoding the gene for neomycin resistance, into CHO cells by a modified calcium phosphate method described by Chen & Okayama (1988). The cells were maintained in Dulbecco's Modified Eagle medium with reduced L-glutamine (2 mM final concentration) and 10% dialysed foetal calf serum from Gibco-Invitrogen (Carlsbad, Calif., USA). Selection was made in the presence of G-418 (1000 ug/ml final) and […]. Clones were identified by reverse transcription of 5 μg total RNA, followed by PCR using mGlu2 receptor specific primers 5′-[…]-3′ and 5′-[…]-3′ in 60 mM Tris HCl (pH 10), 15 mM (NH4)2SO4, 2 mM MgCl2, 25 units/ml Taq Polymerase with 30 cycles annealing at 60° C. for 1 min., extention at 72° C. for 30 s, and 1 min. 95° C. denaturation.
Cells, cultured as above, were harvested and washed three times with cold PBS and frozen at −80° C. The pellet was resuspended in cold 20 mM HEPES-NaOH buffer containing 10 mM EDTA (pH 7.4), and homogenised with a polytron (Kinematica, AG, Littau, Switzerland) for 10 s at 10 000 rpm. After centrifugation for 30 min. at 4° C., the pellet was washed once with the same buffer, and once with cold 20 mM HEPES-NaOH buffer containing 0.1 mM EDTA, (pH 7.4). Protein content was measured using the micro BCA method from Pierce-Perbio (Rockford, Ill., USA) using bovine serum albumin as standard.
After thawing, the membranes were resuspended in cold 50 mM Tris-HCl buffer containing 2 mM MgCl2 (pH 7) (binding buffer). The final concentration of the membranes in the assays was 25 μg protein/ml. Inhibition experiments were performed with membranes incubated with 10 nM [^3H]-LY354740 at room temperature, for 1 hour, in presence of various concentrations of the compound to be tested. Following the incubations, membranes were filtered onto Whatmann GF/B glass fiber filters and washed 5 times with cold binding buffer. Non specific binding was measured in the presence of 10 μM DCG IV. After transfer of the filters into plastic vials containing 10 ml of Ultima-gold scintillation fluid from Perkin-Elmer (Boston, Mass., USA), the radioactivity was measured by liquid scintillation in a Tri-Carb 2500 TR counter (Packard, Zürich, Switzerland).
The inhibition curves were fitted with a four parameter logistic equation giving IC50 values, and Hill coefficients.

T1 sequence (P31421 19-872): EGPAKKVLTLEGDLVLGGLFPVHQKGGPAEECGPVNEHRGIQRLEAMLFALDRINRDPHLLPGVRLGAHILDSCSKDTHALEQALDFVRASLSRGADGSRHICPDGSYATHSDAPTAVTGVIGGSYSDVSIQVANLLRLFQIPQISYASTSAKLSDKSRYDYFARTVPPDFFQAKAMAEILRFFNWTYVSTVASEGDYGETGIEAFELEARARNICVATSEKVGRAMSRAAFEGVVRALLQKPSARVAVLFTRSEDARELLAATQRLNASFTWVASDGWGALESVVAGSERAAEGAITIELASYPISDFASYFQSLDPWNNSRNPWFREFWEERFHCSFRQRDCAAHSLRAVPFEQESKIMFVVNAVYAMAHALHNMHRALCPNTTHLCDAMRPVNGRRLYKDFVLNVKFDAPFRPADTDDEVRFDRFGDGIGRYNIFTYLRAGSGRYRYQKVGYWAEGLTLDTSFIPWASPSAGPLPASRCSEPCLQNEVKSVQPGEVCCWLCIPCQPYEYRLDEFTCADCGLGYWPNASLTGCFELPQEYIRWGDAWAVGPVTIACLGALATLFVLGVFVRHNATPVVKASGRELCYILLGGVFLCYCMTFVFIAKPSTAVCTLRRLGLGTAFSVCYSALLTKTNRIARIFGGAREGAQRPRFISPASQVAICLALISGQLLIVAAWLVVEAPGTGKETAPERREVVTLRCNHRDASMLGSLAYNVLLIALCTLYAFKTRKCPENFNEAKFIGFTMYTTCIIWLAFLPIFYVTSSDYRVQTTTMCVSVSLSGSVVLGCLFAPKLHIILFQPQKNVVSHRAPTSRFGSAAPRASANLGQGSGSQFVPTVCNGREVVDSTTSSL

Broadly, the pKi is the Ki on a negative log10 scale, so that one unit is a factor of ten. A high value points to a low Ki. By melting point is commonly meant the temperature, or range, at which the solid turns liquid. `O=C(Nc1cccc(S(=O)(=O)N2CCOCC2)c1)c1cnn2c(C(F)(F)F)cc(-c3ccc(C(F)(F)F)cc3)nc12` [Example 1, 7-Trifluoromethyl-5-(4-trifluoromethyl-phenyl)-pyrazolo[1,5-a]pyrimidine-3-carboxylic acid[3-(morpholine-4-sulfonyl)-phenyl]-amide] showed a melting point of 233 °C. The pKi on rat mGlu2 receptor was 7.52.
Turning to `O=C(Nc1cccc(S(=O)(=O)NCC(F)(F)F)c1)c1cnn2c(C(F)F)cc(-c3ccc(C(F)(F)F)cc3)nc12` [Example 52, 7-Difluoromethyl-5-(4-trifluoromethyl-phenyl)-pyrazolo[1,5-a]pyrimidine-3-carboxylic acid [3-(2,2,2-trifluoro-ethylsulfamoyl)-phenyl]-amide], the melting point came out at 257 °C.
`O=C(Nc1cccc(S(=O)(=O)NCC2CC2)c1)c1cnn2c(C(F)F)cc(-c3ccc(C(F)(F)F)cc3)nc12` [Example 73, 7-Difluoromethyl-5-(4-trifluoromethyl-phenyl)-pyrazolo[1,5-a]pyrimidine-3-carboxylic acid [3-(cyclopropylmethyl-sulfamoyl)-phenyl]-amide] showed a melting point of 238 °C.
`O=C(Nc1cccc(S(=O)(=O)Nc2ccccc2)c1)c1cnn2c(C(F)F)cc(-c3ccc(C(F)(F)F)cc3)nc12` [Example 74, 7-Difluoromethyl-5-(4-trifluoromethyl-phenyl)-pyrazolo[1,5-a]pyrimidine-3-carboxylic acid(3-phenylsulfamoyl-phenyl)-amide] came in with a melting point of 228 °C. The same compound showed a negative logarithm of the Ki (pKi) at rat mGlu2 receptor of 7.17.
On to `NS(=O)(=O)c1cccc(NC(=O)c2cnn3c(C(F)F)cc(-c4ccc(C(F)(F)F)c(OCC(F)(F)F)c4)nc23)c1` [Example 79, 7-Difluoromethyl-5-[3-(2,2,2-trifluoro-ethoxy)-4-trifluoromethyl-phenyl]-pyrazolo[1,5-a]pyrimidine-3-carboxylic acid(3-sulfamoyl-phenyl)-amide], for which the melting point came to 241 °C. In addition, the pKi on rat mGlu2 receptor is 7.96.
In turn, `O=C(Nc1cccc(S(=O)(=O)NCCO)c1)c1cnn2c(C(F)F)cc(-c3ccc(C(F)(F)F)cc3)nc12` [Example 83, 7-Difluoromethyl-5-(4-trifluoromethyl-phenyl)-pyrazolo[1,5-a]pyrimidine-3-carboxylic acid [3-(2-hydroxy-ethylsulfamoyl)-phenyl]-amide] yielded a melting point of 231 °C.
As for `O=C(Nc1cccc(S(=O)(=O)NCc2ccncc2)c1)c1cnn2c(C(F)F)cc(-c3ccc(C(F)(F)F)cc3)nc12` [Example 88, 7-Difluoromethyl-5-(4-trifluoromethyl-phenyl)-pyrazolo[1,5-a]pyrimidine-3-carboxylic acid {3-[(pyridin-4-ylmethyl)-sulfamoyl]-phenyl}-amide], the melting point turned out to be 221 °C. At rat mGlu2 receptor, this compound showed a pKi of 7.82.
For the compound `O=C(Nc1cccc(S(=O)(=O)CCO)c1)c1cnn2c(C(F)F)cc(-c3ccc(C(F)(F)F)cc3)nc12` [Example 90, 7-Difluoromethyl-5-(4-trifluoromethyl-phenyl)-pyrazolo[1,5-a]pyrimidine-3-carboxylic acid [3-(2-hydroxy-ethanesulfonyl)-phenyl]-amide], the melting point came out at 205 °C.
Compound `O=C(Nc1cccc(S(=O)(=O)NCc2cccnc2)c1)c1cnn2c(C(F)F)cc(-c3ccc(C(F)(F)F)cc3)nc12` [Example 106, 7-Difluoromethyl-5-(4-trifluoromethyl-phenyl)-pyrazolo[1,5-a]pyrimidine-3-carboxylic acid {3-[(pyridin-3-ylmethyl)-sulfamoyl]-phenyl}-amide] yielded a melting point of 256 °C.
As to `CN(C)CCNS(=O)(=O)c1cccc(NC(=O)c2cnn3c(C(F)F)cc(-c4ccc(C(F)(F)F)cc4)nc23)c1` [Example 144, 7-Difluoromethyl-5-(4-trifluoromethyl-phenyl)-pyrazolo[1,5-a]pyrimidine-3-carboxylic acid[3-(2-dimethylamino-ethylsulfamoyl)-phenyl]-amide], the melting point was 184 °C. The pKi at rat mGlu2 receptor is 8.15.

These data come from patent US7378417B2, “Pyrazolo-pyrimidine derivatives” (Hoffmann-La Roche Inc., priority 2004, dated 2008).
